In patent US7423175B2, “Hydroxy-tetrahydro-naphthalenylurea derivatives” (Bayer Healthcare AG, priority 2003, dated 2008):

Columns and labels:
[1] = target: T1, human VR1 (Homo sapiens, UniProt Q8NER1); experiment: Capsaicin-induced Ca2+ influx in the human VR1-transfected CHO cell line (Assay 1); assay type: cell-based; conditions: human VR1-CHOluc9aeq cells, stimulation with 10 nM capsaicin; read-out: activity class (IC50)
T1 construct: expressed in transfected cells; host or cells: CHOluc9aeq (CHO cells with aequorin and CRE-luciferase reporter genes)
Text: [Measurement of Capsalcin-Induced Ca^2+ Influx in the Human VR1-Transfected CHO Cell Line] (Assay 1)
(1) Establishment of the Human VR1-CHOluc9aeq Cell Line
Human vanilloid receptor (hVR1) cDNA was cloned from libraries of axotomized dorsal root ganglia (WO 00/29577). The cloned hVR1 cDNA was constructed with pcDNA3 vector and transfected into a CHOluc9aeq cell line. The cell line contains aequorin and CRE-luciferase reporter genes as read-out signals. The transfectants were cloned by limiting dilution in selection medium (DMEM/F12 medium (Gibco BRL) supplemented with 10% FCS, 1.4 mM Sodium pyruvate, 20 mM HEPES, 0.15% Sodium bicarbonate, 100 U/ml penicillin, 100 μg/ml streptomycin, 2 mM glutamine, non-essential amino acids and 2 mg/ml G418). Ca^2+ influx was examined in the capsaicin-stimulated clones. A high responder clone was selected and used for further experiments in the project. The human VR1-CHOluc9aeq cells were maintained in the selection medium and passaged every 3-4 days at 1-2.5×10^5 cells/flask ([…]).
(2) Measurement of Ca^2+ Influx Using FDSS-3000
Human VR1-CHOluc9aeq cells were suspended in a culture medium which is the same as the selection medium except for G418 and seeded at a density of 1,000 cells per well into 384-well plates (black walled clear-base/Nalgei Nunc International). Following the culture for 48 hrs the medium was changed to 2 μM Fluo-3 AM (Molecular Probes) and 0.02% Puronic F-127 in assay buffer (Hank's balanced salt solution (HBSS), 17 mM HEPES (pH7.4), 1 mM Probenecid, 0.1% BSA) and the cells were incubated for 60 min at 25° C. After washing twice with assay buffer the cells were incubated with a test compound or vehicle for 20 min at 25° C. Mobilization of cytoplasmic Ca^2+ was measured by FDSS-3000 (λex=488 nm, λem=546 nm/Hamamatsu Photonics) for 60 sec after the stimulation with 10 nM capsaicin. Integral R was calculated and compared with controls.
Results in capsaicin-induced Ca^2+ influx assay in the human VR1-transfected CHO cell line (Assay 1) are shown in Examples and tables of the Examples below. For practical reasons, the compounds are grouped in four classes based on activity as follows: IC50=A(< or =)0.1 μM<B(< or =)0.5 μM<C(< or =)1 μM<D

T1 sequence (Q8NER1 whole entry): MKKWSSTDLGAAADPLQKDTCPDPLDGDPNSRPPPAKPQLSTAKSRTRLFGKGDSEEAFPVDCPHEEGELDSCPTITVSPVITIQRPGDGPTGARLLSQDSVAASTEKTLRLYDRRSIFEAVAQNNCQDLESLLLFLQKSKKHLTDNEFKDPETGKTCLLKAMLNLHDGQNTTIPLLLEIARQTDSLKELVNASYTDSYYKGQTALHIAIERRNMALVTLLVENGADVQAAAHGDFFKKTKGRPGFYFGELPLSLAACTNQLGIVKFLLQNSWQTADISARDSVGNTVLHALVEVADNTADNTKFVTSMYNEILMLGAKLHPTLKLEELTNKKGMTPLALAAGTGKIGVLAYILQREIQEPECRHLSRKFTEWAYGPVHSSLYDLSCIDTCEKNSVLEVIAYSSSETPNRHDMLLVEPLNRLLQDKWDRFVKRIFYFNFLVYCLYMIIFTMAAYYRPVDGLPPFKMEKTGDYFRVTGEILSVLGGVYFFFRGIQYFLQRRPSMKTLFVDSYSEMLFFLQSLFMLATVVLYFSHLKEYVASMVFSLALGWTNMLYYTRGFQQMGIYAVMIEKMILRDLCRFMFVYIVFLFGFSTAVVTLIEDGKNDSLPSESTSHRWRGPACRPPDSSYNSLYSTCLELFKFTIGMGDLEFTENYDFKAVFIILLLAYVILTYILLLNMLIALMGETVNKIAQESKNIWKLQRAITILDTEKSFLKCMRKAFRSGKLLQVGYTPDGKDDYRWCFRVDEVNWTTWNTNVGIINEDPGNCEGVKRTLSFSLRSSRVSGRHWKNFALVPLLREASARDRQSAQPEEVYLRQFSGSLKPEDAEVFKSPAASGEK

| Compound | IC50 [1] | melting point |
| --- | --- | --- |
| CCOC(=O)c1c(F)cccc1OCCNC(=O)Nc1cccc2c1CC(O)CC2 (centres unmarked) [Example 1-3, Ethyl 2-Fluoro-6-{2-[3-(7-hydroxy-5,6,7,8-tetrahydronaphthalen-1-yl)-ureido]-ethoxy}benzoate] | < 100 nM | 165 to 166 °C |
| O=C(NCCOc1ccc(F)cc1)Nc1cccc2c1CC(O)CC2 (centres unmarked) [Example 1-1, N-[2-(4-Fluorophenoxy)ethyl]-N′-(7-hydroxy-5,6,7,8-tetrahydronaphthalen-1-yl)urea] | < 100 nM | 167 to 169 °C |
| CCN(CCNC(=O)Nc1cccc2c1C[C@H](O)CC2)c1cccc(C)c1 [Example 1-11, N-{2-[Ethyl(m-tolyl)amino]ethyl}-N′-[(7R)-7-hydroxy-5,6,7,8-tetrahydro-1-naphthalenyl]urea] | < 100 nM | 143 to 144 °C |
| O=C(NCCOc1ccccc1N1CCCCC1)Nc1cccc2c1CC(O)CC2 (centres unmarked) [Example 1-5, N-(7-Hydroxy-5,6,7,8-tetrahydronaphthalen-1-yl)-N′-[2-(2-piperidin-1-yl-phenoxy)ethyl]urea] | < 100 nM | 128 to 136 °C |
| CCN(CCNC(=O)Nc1cccc2c1CC(O)CC2)c1cccc(C)c1 (centres unmarked) [Example 1-9, N-{2-[Ethyl(m-tolyl)amino]ethyl]-N′-(7-hydroxy-5,6,7,8-tetrahydro-1-naphthalenyl)urea] | < 100 nM | 149 to 150 °C |

The remaining lines, values ahead:

| IC50 [1] | melting point | Compound |
| --- | --- | --- |
| < 100 nM | 144 to 149 °C | O=C(NCCOc1cc(C(F)(F)F)cc(C(F)(F)F)c1)Nc1cccc2c1CC(O)CC2 (centres unmarked) [Example 1-4, N-{2-[3,5-Bis(trifluoromethyl)phenoxy]ethyl}-N′-(7-hydroxy-5,6,7,8-tetrahydronaphthalen-1-yl)urea] |
| < 100 nM | 111 to 113 °C | O=C(NCCOc1ccc(F)cc1)Nc1cccc2c1C[C@H](O)CC2 [Example 1-7, N-[2-(4-Fluorophenoxy)ethyl]-N′-[(7R)-7-hydroxy-5,6,7,8-tetrahydronaphthalen-1-yl]urea] |
| < 100 nM | 112 to 113 °C | O=C(NCCOc1ccc(F)cc1)Nc1cccc2c1C[C@@H](O)CC2 [Example 1-8, N-[2-(4-Fluorophenoxy)ethyl]-N′-[(7S)-7-hydroxy-5,6,7,8-tetrahydronaphthalen-1-yl]urea] |
| < 100 nM | 131 to 136 °C | O=C(NCCOc1ccccc1F)Nc1cccc2c1CC(O)CC2 (centres unmarked) [Example 1-2, N-[2-(2-Fluorophenoxy)ethyl]-N′-(7-hydroxy-5,6,7,8-tetrahydro-1-naphthalenyl)-urea] |
| < 100 nM | 160 to 162 °C | Cc1cccc(N(C)CCNC(=O)Nc2cccc3c2CC(O)CC3)c1 (centres unmarked) [Example 1-10, N-(7-Hydroxy-5,6,7,8-tetrahydronaphthalen-1-yl)-N′-{2-[methyl(m-tolyl)amino]-ethyl}urea] |
| > 1000 nM | 182 to 184 °C | COc1ccccc1OCCNC(=O)Nc1cccc2c1CC(O)CC2 (centres unmarked) [Example 1-6, N-(7-Hydroxy-5,6,7,8-tetrahydronaphthalen-1-yl)-N′-[2-(2-methoxyphenoxy)ethyl]urea] |
| < 100 nM | 125 to 126 °C | CN(CCCNC(=O)Nc1cccc2c1CC(O)CC2)c1ccccc1 (centres unmarked) [Example 1-13, N-(7-Hydroxy-5,6,7,8-tetrahydronaphthalen-1-yl)-N′-[3-(methyl-phenyl-amino)propyl]urea] |
| < 100 nM | 136 to 137 °C | CCN(CCNC(=O)Nc1cccc2c1C[C@@H](O)CC2)c1cccc(C)c1 [Example 1-12, N-{2-[Ethyl(m-tolyl)amino]ethyl}-N′-[(7S)-7-hydroxy-5,6,7,8-tetrahydro-1-naphthalenyl]urea] |
